Results published in patent US8119663B2, “Heteroaryl-substituted piperidines” (Bayer Pharma Aktiengesellschaft, priority 2007, dated 2012).

target: T1, human protease activated receptor 1 (PAR1) (Homo sapiens, UniProt P25116); experiment: Cellular functional in vitro test (aequorin luminescence, PAR1 test cell); format: cell-based; settings: recombinant HEK293-derived cell line expressing aequorin; PAR1 agonist added at its EC50 5 minutes after test substance
T1 construct: the cell stably expresses the endogenous human PAR1 receptor and the endogenous purinergic receptor P2Y2; endogenous in cells; host or cells: HEK293-derived recombinant cell line constitutively expressing mitochondrial aequorin
T1 sequence (P25116 22-425): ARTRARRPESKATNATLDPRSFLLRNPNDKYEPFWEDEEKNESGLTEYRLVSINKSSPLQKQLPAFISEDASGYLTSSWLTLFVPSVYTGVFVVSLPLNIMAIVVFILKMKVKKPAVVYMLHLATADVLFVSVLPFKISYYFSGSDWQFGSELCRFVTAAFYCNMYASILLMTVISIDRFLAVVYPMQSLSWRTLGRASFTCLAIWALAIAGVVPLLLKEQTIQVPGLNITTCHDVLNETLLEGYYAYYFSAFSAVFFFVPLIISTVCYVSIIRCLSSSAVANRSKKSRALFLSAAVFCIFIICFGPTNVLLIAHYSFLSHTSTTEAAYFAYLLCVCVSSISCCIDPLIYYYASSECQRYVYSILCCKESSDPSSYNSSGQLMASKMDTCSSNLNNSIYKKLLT
Source text: 1.a) Cellular Functional In vitro Test
A recombinant cell line is used to identify […] of the human protease activated receptor 1 (PAR1) and to quantify the activity of the substances described herein. The cell is originally derived from a human embryonal kidney cell (HEK293; ATCC: American Type Culture Collection, Manassas, Va. 20108, USA). The test cell line constitutively expresses a modified form of the calcium-sensitive photoprotein aequorin which, after reconstitution with the cofactor coelenterazine, emits light when the free calcium concentration in the inner mitochondrial compartment is increased (Rizzuto R, Simpson A W, Brini M, Pozzan T.; Nature 1992, 358, 325-327). Additionally, the cell stably expresses the endogenous human PAR1 receptor and the endogenous purinergic receptor P2Y2. The resulting PAR1 test cell responds to stimulation of the endogenous PAR1 or P2Y2 receptor with an intracellular release of calcium ions, which can be quantified through resulting aequorin luminescence with a suitable luminometer (Milligan G, Marshall F, Rees S, Trends in Pharmacological Sciences 1996, 17, 235-237).
For testing the substance specificity, its effect after activation of the endogenous PAR1 receptor is compared to the effect after activation of the endogenous purinergic P2Y2 receptor which utilizes the same intracellular signal path.
Test procedure: The cells are plated out two days (48 hours) before the test in culture medium (DMEM F12, supplemented with 10% FCS, 2 mM glutamine, 20 mM HEPES, 1.4 mM pyruvate, 0.1 mg/ml gentamycin, 0.15% Na bicarbonate; BioWhittaker Cat.# BE04-687Q; B-4800 Verviers, Belgium) in 384-well microtitre plates and kept in a cell incubator (96% atmospheric humidity, 5% V/V CO2, 37° C.). On the day of the test, the culture medium is replaced by a tyrode solution (in mM: 140NaCl, 5l KCl, 1MgCl2, 2CaCl2, 20 glucose, 20 HEPES), which additionally contains the cofactor coelenterazine (25 μM) and glutathione (4 mM), and the microtitre plate is then incubated for a further 3-4 hours. The test substances are then pipetted onto the microtitre plate, and 5 minutes after the transfer of the test substances into the wells of the microtitre plate the plate is transferred into the luminometer, a PAR1 agonist concentration which corresponds to the EC50 is added and the resulting light signal is immediately measured in the luminometer. To distinguish an antagonist substance action from a toxic action, the endogenous purinergic receptor is immediately subsequently activated with agonist (ATP, final concentration 10 μM) and the resulting light signal is measured.

Compound | IC50 [nM]
CCc1ccc(C2CC(c3nc(-c4cccc(OC)c4)no3)CN(C(=O)N3CCOCC3)C2)cc1 (racemic) [Example 28, 4-({3-(4-Ethylphenyl)-5-[3-(3-methoxyphenyl)-1,2,4-oxadiazol-5-yl]piperidin-1-yl}carbonyl)-morpholine] | 28
CCc1ccc(C2CC(c3nc(-c4ccc(F)cc4F)no3)CN(C(=O)N3CCOCC3)C2)cc1 (racemic) [Example 37, 4-({3-[3-(2,4-Difluorophenyl)-1,2,4-oxadiazol-5-yl]-5-(4-ethylphenyl)piperidin-1-yl}carbonyl)-morpholine] | 21
Cc1ccncc1-c1csc(C2CC(c3ccc(C(F)(F)F)cc3)CN(C(=O)N3CCOCC3)C2)n1 (racemic) [Example 113, 4-({3-[4-(4-Methylpyridin-3-yl)-1,3-thiazol-2-yl]-5-[4-(trifluoromethyl)phenyl]piperidin-1-yl}carbonyl)morpholine] | 47
O=C(N1CCOCC1)N1CC(c2ccc(C(F)(F)F)cc2)CC(c2nc(-c3cccnc3)cs2)C1 (racemic) [Example 119, 4-({3-(4-Pyridin-3-yl-1,3-thiazol-2-yl)-5-[4-(trifluoromethyl)phenyl]piperidin-1-yl}carbonyl)-morpholine] | 68
O=C(N1CC(c2ccc(OC(F)(F)F)cc2)CC(c2nc(C3CC3)no2)C1)N1CCC(F)(F)C1 (racemic) [Example 144, {3-(3-Cyclopropyl-1,2,4-oxadiazol-5-yl)-5-[4-(trifluoromethoxy)phenyl]piperidin-1-yl}(3,3-difluoropyrrolidin-1-yl)methanone] | 8.51
Cc1ccc(C2CC(c3nc(C(C)C)no3)CN(C(=O)N3CCOCC3)C2)cc1C (racemic) [Example 148, {3-(3,4-Dimethylphenyl)-5-[3-(propan-2-yl)-1,2,4-oxadiazol-5-yl]piperidin-1-yl}(morpholin-4-yl)methanone] | 14
CCc1ccc(C2CC(c3nc(CCOC)no3)CN(C(=O)N3CCOCC3)C2)cc1 (racemic) [Example 150, {3-(4-Ethylphenyl)-5-[3-(2-methoxyethyl)-1,2,4-oxadiazol-5-yl]piperidin-1-yl}(morpholin-4-yl)methanone] | 19
CCc1ccc(C2CC(c3nc(C(C)(C)C)no3)CN(C(=O)N3CCC(O)CC3)C2)cc1 (racemic) [Example 152] | 48.1
O=C(N1CCOCC1)N1CC(c2ccc(C(F)(F)F)cc2)CC(c2noc(-c3cccc(F)c3)n2)C1 (racemic) [Example 159, {3-[5-(3-Fluorophenyl)-1,2,4-oxadiazol-3-yl]-5-[4-(trifluoromethyl)phenyl]piperidin-1-yl}-(morpholin-4-yl)methanone] | 4.61
O=C(N1CCOCC1)N1CC(c2ccc(C(F)(F)F)cc2)CC(c2noc(-c3ccccc3)n2)C1 (racemic) [Example 160, Morpholin-4-yl{3-(5-phenyl-1,2,4-oxadiazol-3-yl)-5-[4(trifluoromethyl)phenyl]piperidin-1-yl}-methanone] | 5.4
CC(C)c1nc(C2CC(c3ccc(C(F)(F)F)cc3)CN(C(=O)N3CCOCC3)C2)no1 (racemic) [Example 169, Morpholin-4-yl{3-[5-(propan-2-yl)-1,2,4-oxadiazol-3-yl]-5-[4-(trifluoromethyl)phenyl]piperidin-1-yl}methanone] | 6.74
CC1CN(C(=O)N2CC(c3ccc(C(F)(F)F)cc3)CC(c3nc(C4CC4)no3)C2)C1 (racemic) [Example 181, {3-(3-Cyclopropyl-1,2,4-oxadiazol-5-yl)-5-[4-(trifluoromethyl)phenyl]piperidin-1-yl}(3-methylazetidin-1-yl)methanone] | 28.8
CCc1ccc(C2CC(c3nc(CCOC)no3)CN(C(=O)N3CCC(O)CC3)C2)cc1 (racemic) [Example 183, {3-(4-Ethylphenyl)-5-[3-(2-methoxyethyl)-1,2,4-oxadiazol-5-yl]piperidin-1-yl}(4-hydroxy-piperidin-1-yl)methanone] | 31.5
CCc1ccc(C2CC(c3nc(C(C)(C)O)no3)CN(C(=O)N3CCC(O)CC3)C2)cc1 (racemic) [Example 187, {3-(4-Ethylphenyl)-5-[3-(2-hydroxypropan-2-yl)-1,2,4-oxadiazol-5-yl]piperidin-1-yl}(4-hydroxy-piperidin-1-yl)methanone] | 53.4
Cc1ccc(C2CC(c3nc(C(C)C)no3)CN(C(=O)N3CCC(C#N)CC3)C2)cc1C (racemic) [Example 197, 1-({3-(3,4-Dimethylphenyl)-5-[3-(propan-2-yl)-1,2,4-oxadiazol-5-yl]piperidin-1-yl}carbonyl)-piperidine-4-carbonitrile] | 77.5
CC(C)(O)Cc1noc(C2CC(c3ccc(C(F)(F)F)cc3)CN(C(=O)N3CCC(C#N)CC3)C2)n1 (racemic) [Example 212, 1-({3-[3-(2-Hydroxy-2-methylpropyl)-1,2,4-oxadiazol-5-yl]-5-[4-(trifluoromethyl)phenyl]-piperidin-1-yl}carbonyl)piperidine-4-carbonitrile] | 142
Cc1cc(C2CC(c3nc(-c4cccc(F)c4)no3)CN(C(=O)N3CCC(O)CC3)C2)ccc1OC(F)(F)F (racemic) [Example 229, {3-[3-(3-Fluorophenyl)-1,2,4-oxadiazol-5-yl]-5-[3-methyl-4-(trifluoromethoxy)phenyl]piperidin-1-yl}(4-hydroxypiperidin-1-yl)methanone] | 1.72
Cc1cc(C2CC(c3nc(C4CC4)no3)CN(C(=O)N3CCC(O)CC3)C2)ccc1OC(F)(F)F (racemic) [Example 230, {3-(3-Cyclopropyl-1,2,4-oxadiazol-5-yl)-5-[3-methyl-4-(trifluoromethoxy)phenyl]piperidin-1-yl}(4-hydroxypiperidin-1-yl)methanone] | 2.81
Cc1ccc(C2CC(c3nc(-c4cccc(F)c4)no3)CN(C(=O)N3CCC(O)CC3)C2)cc1C (racemic) [Example 232, {3-(3,4-Dimethylphenyl)-5-[3-(3-fluorophenyl)-1,2,4-oxadiazol-5-yl]piperidin-1-yl}(4-hydroxy-piperidin-1-yl)methanone] | 6.44
Cc1ccc(C2CC(c3nc(C(C)C)no3)CN(C(=O)N3CCC(O)CC3)C2)cc1C (racemic) [Example 234, {3-(3,4-Dimethylphenyl)-5-[3-(propan-2-yl)-1,2,4-oxadiazol-5-yl]piperidin-1-yl}(4-hydroxy-piperidin-1-yl)methanone] | 15.4
Cc1cc(-c2noc(C3CC(c4ccc(OC(F)(F)F)cc4)CN(C(=O)N4CCOCC4)C3)n2)no1 (racemic) [Example 249, {3-[3-(5-Methylisoxazol-3-yl)-1,2,4-oxadiazol-5-yl]-5-[4-(trifluoromethoxy)phenyl]piperidin-1-yl}(morpholin-4-yl)methanone] | 13.1
CC(C)(C)c1noc(C2CC(c3ccc(C(F)(F)F)cc3)CN(C(=O)N3CCC(C#N)CC3)C2)n1 (racemic) [Example 283, 1-({3-(3-tert-Butyl-1,2,4-oxadiazol-5-yl)-5-[4-(trifluoromethyl)phenyl]piperidin-1-yl}carbonyl)-piperidine-4-carbonitrile] | 14.9
CC(C)c1noc(C2CC(c3ccc(C(F)(F)F)cc3)CN(C(=O)N3CCC(C#N)CC3)C2)n1 (racemic) [Example 284, 1-({3-[3-(Propan-2-yl)-1,2,4-oxadiazol-5-yl]-5-[4-(trifluoromethyl)phenyl]piperidin-1-yl}-carbonyl)piperidine-4-carbonitrile] | 9.73
Cc1ccncc1-c1noc(C2CC(c3ccc(C(F)(F)F)cc3)CN(C(=O)N3CCOCC3)C2)n1 (racemic) [Example 329, {3-[3-(4-Methylpyridin-3-yl)-1,2,4-oxadiazol-5-yl]-5-[4-(trifluoromethyl)phenyl]piperidin-1-yl}-(morpholin-4-yl)methanone] | 24
